The results in this text go back to patent US9340577B2, “HLA binding motifs and peptides and their uses” (priority 1992, dated 2016).

No end group written: not given here.

Common to all, as to experiment: biochemical
The target of one assay is DRB1*1201 (Homo sapiens, UniProt P01903+P01911, A100R/A169T/D57E/D86V/F55L/H45Y/K41T/L162R/M171V/P40S/Q125H/Q178H/Q39Y/Q99D/R42G/S66L/T262R/V114A/V67L/W38E/Y59H/Y61H/Y89S). Format: binding.
The target in another assay is DRB5*0101 (Homo sapiens, UniProt P01903+Q30154).
For the next assay, the target named is DRB1*1101 (Homo sapiens, UniProt P01903+P01911, A100R/A169T/A87E/I96F/K41T/L162R/M171V/P40S/Q125H/Q178H/Q39Y/Q99D/R42S/S66Y/T262R/V115G/W38E).
Chain of DRB1*1101 (P01903 26-254 limits assumed, other chains not shown): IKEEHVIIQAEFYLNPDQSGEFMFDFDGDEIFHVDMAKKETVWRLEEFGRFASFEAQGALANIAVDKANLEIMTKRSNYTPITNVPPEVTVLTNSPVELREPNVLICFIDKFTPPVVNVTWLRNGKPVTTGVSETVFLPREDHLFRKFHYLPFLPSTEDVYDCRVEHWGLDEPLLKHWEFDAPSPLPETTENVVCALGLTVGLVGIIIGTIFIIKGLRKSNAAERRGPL
For another assay, the target named is DRB3*0101 (Homo sapiens, UniProt P01903+P79483). Type of assay: binding.
For the next assay, the target named is DRB1*0802 (Homo sapiens, UniProt P01903+P01911, A100R/A103L/A169T/F76Y/H45Y/I96F/K41T/L162R/M171V/P40S/Q125H/Q178H/Q39Y/Q99D/R218S/R42G/S66Y/V115G/W38E). Format: binding.
In the next assay the target is DRB1*1501 (Homo sapiens, UniProt P01903+P01911). Format: binding.
The target in a further assay is DR7 (DRB1*0701) (Homo sapiens, UniProt P01903+P01911, A100R/A102G/A103Q/D57E/D86V/E43K/F76Y/K127E/L162R/M171V/P40G/Q125H/Q99D/R33Q/R42Y/R54Q/S133A/S66F/T210M/V115G/Y107V/Y59L/Y89S). Format: binding.
The target in another assay is DRB1*1302 (Homo sapiens, UniProt P01903+P01911, A100E/A169T/K41T/L162R/M171V/P40S/Q125H/Q178H/Q39Y/Q99D/R42S/S66N/T262R/V115G/W38E/Y61H). Type of assay: binding.
Chain of DRB1*1302 (P01903 26-254 limits assumed, other chains not shown): as above
For another assay, the target named is DRB1*0901 (Homo sapiens, UniProt P01903+P01911, A100R/A103E/D57H/D86V/F55Y/F60I/F76Y/I96F/K127E/L162R/M171V/P40D/Q125H/Q99R/R33Q/R42F/S133A/S66N/T210M/V115G/W38K/Y107V/Y59G/Y89S). Format: binding.
In another assay the target is DR1 (DRB1*0101) (Homo sapiens, UniProt P01903+P01911, A100R/D57E/F55L/F60I/F76Y/I96L/L162R/M171V/P40L/Q125E/R42F/V115G/Y59C). Type of assay: binding.
The target of the next assay is DRB4*0101 (Homo sapiens, UniProt P01903+P13762, G164S). Format: binding.
Another assay deals with DRB1*0405 (Homo sapiens, UniProt P01903+P01911, A100R/A169T/D86S/F76Y/I96L/K127E/L162R/M171V/N62H/P40V/Q125Y/R42H/S133A/S149N/S66Y/V115G/V209L/W38E). Format: binding.
The target of the next assay is DR4w4 (DRB1*0401) (Homo sapiens, UniProt P01903+P01911, A100K/A169T/F76Y/I96L/K127E/L162R/M171V/N62H/P40V/Q125Y/R42H/S133A/S149N/S66Y/V115G/V209L/W38E). Format: binding.

As for `CC[C@H](C)[C@H](NC(=O)[C@H](CO)NC(=O)[C@H](CC(C)C)NC(=O)[C@@H](NC(=O)[C@H](CC(C)C)NC(=O)[C@@H](N)CC(=O)O)C(C)C)C(=O)N[C@@H](C)C(=O)N[C@@H](CC(C)C)C(=O)N[C@@H](CO)C(=O)N[C@H](C(=O)NCC(=O)N[C@@H](CS)C(=O)N[C@H](C(=O)NCC(=O)N[C@@H](C)C(=O)O)[C@@H](C)O)C(C)C` [Peptide 68.0002], the IC50 was 4.92 µM at DRB1*1201; greater than 20 µM on DRB5*0101 (Binding affinity DRB5 *0101); greater than 20 µM on DRB1*1101 (Binding affinity DRB1 *1101); greater than 20 µM against DRB3*0101; greater than 20 µM at DRB1*0802.

Regarding `CC(C)C[C@H](NC(=O)[C@H](CCC(=O)O)NC(=O)[C@H](CCCCN)NC(=O)[C@H](C)NC(=O)[C@H](CC(C)C)NC(=O)[C@@H](NC(=O)[C@H](CO)NC(=O)[C@H](CCCNC(=N)N)NC(=O)[C@@H](N)CC(=O)O)C(C)C)C(=O)N[C@@H](CCCCN)C(=O)N[C@@H](Cc1ccccc1)C(=O)N[C@H](C(=O)N[C@H](C(=O)N[C@@H](CC(C)C)C(=O)N[C@H](C(=O)O)C(C)C)[C@@H](C)O)C(C)C` [Peptide 68.0024], the IC50 at DRB1*1201 was 0.301 µM; at DRB1*1101 (Binding affinity DRB1 *1101), greater than 20 µM; against DRB3*0101, greater than 20 µM.

As for `CC[C@H](C)[C@H](NC(=O)[C@@H](NC(=O)[C@@H]1CCCN1C(=O)CNC(=O)[C@@H](NC(=O)[C@H](CC(C)C)NC(=O)[C@H](CCC(=O)O)NC(=O)[C@H](C)NC(=O)[C@@H](N)Cc1ccccc1)C(C)C)C(C)C)C(=O)N1CCC[C@H]1C(=O)N[C@@H](CCC(N)=O)C(=O)N[C@@H](CC(=O)O)C(=O)N[C@@H](Cc1c[nH]c2ccccc12)C(=O)N[C@@H](CO)C(=O)N[C@H](C(=O)O)[C@@H](C)O` [Peptide 68.0056], the IC50 against DRB1*1501, against DR7 (DRB1*0701), at DRB5*0101 (Binding affinity DRB5 *0101), on DRB1*1101 (Binding affinity DRB1 *1101), against DRB1*1302 and against DRB3*0101 was greater than 20 µM throughout. Also, the IC50 at DRB1*0901 and against DRB1*0802 was greater than 20 µM throughout.

With `CC[C@H](C)[C@H](NC(=O)CNC(=O)[C@H](CCC(N)=O)NC(=O)[C@H](CC(C)C)NC(=O)[C@@H](NC(=O)CNC(=O)[C@H](CC(N)=O)NC(=O)[C@H](CS)NC(=O)[C@@H](NC(=O)[C@H](CC(C)C)NC(=O)[C@@H]1CCCN1C(=O)CNC(=O)CN)C(C)C)C(C)C)C(=O)N[C@H](C(=O)N[C@@H](CO)C(=O)O)[C@@H](C)O` [Peptide 68.0079], the IC50 on DRB1*1501, on DR7 (DRB1*0701) and against DRB3*0101 was greater than 20 µM each time.

Take `CC[C@H](C)[C@H](NC(=O)[C@@H]1CCCN1C(=O)[C@H](Cc1c[nH]cn1)NC(=O)[C@@H](NC(=O)[C@@H]1CCCN1C(=O)[C@@H](NC(=O)[C@H](CO)NC(=O)[C@@H]1CCCN1C(=O)[C@H](CC(C)C)NC(=O)CNC(=O)[C@@H](NC(=O)[C@H](C)NC(=O)[C@H](CCC(=O)O)NC(=O)[C@H](C)N)C(C)C)[C@@H](C)CC)C(C)C)C(=O)NCC(=O)O` [Peptide 68.0101]: the IC50 was 0.7 µM against DRB1*1201; greater than 20 µM on DRB5*0101 (Binding affinity DRB5 *0101); greater than 20 µM at DRB1*1101 (Binding affinity DRB1 *1101); greater than 20 µM on DRB3*0101; greater than 20 µM against DRB1*0901; greater than 20 µM at DRB1*0802.

For `CC[C@H](C)[C@H](NC(=O)[C@H](Cc1c[nH]cn1)NC(=O)[C@H](CCSC)NC(=O)[C@H](CCCCN)NC(=O)[C@@H](NC(=O)[C@H](CCCCN)NC(=O)[C@H](CCC(N)=O)NC(=O)[C@@H](NC(=O)[C@H](CO)NC(=O)[C@H](Cc1ccccc1)NC(=O)[C@H](CC(N)=O)NC(=O)CNC(=O)[C@@H](N)[C@@H](C)O)[C@@H](C)O)C(C)C)C(=O)N[C@@H](Cc1c[nH]cn1)C(=O)N[C@@H](CO)C(=O)O` [Peptide 68.0105], the IC50 at DRB3*0101 was greater than 20 µM.

For the molecule `CC(C)C[C@H](NC(=O)[C@H](CC(=O)O)NC(=O)[C@H](CCCCN)NC(=O)[C@H](Cc1ccccc1)NC(=O)[C@H](C)NC(=O)[C@H](Cc1ccccc1)NC(=O)[C@H](CCC(=O)O)NC(=O)[C@H](Cc1ccccc1)NC(=O)[C@@H](NC(=O)[C@@H](N)CCC(=O)O)C(C)C)C(=O)N[C@@H](Cc1ccccc1)C(=O)N[C@H](C(=O)N[C@H](C(=O)N[C@@H](Cc1ccc(O)cc1)C(=O)N[C@@H](CCCNC(=N)N)C(=O)O)C(C)C)C(C)C` [Peptide 1543.35], the IC50 on DRB5*0101 (Binding affinity DRB5 *0101), at DRB3*0101 and against DRB1*0901 was greater than 20 µM each time.

In the case of `CC[C@H](C)[C@H](NC(=O)[C@H](C)NC(=O)[C@H](CCCCN)NC(=O)[C@H](Cc1c[nH]cn1)NC(=O)[C@H](C)NC(=O)[C@H](CCCCN)NC(=O)[C@H](CO)NC(=O)[C@H](CCCCN)NC(=O)[C@H](CO)NC(=O)[C@@H](NC(=O)[C@H](CC(N)=O)NC(=O)[C@@H](NC(=O)[C@@H]1CCCN1)[C@@H](C)CC)[C@@H](C)CC)C(=O)N[C@@H](CCC(=O)O)C(=O)N[C@@H](CC(C)C)C(=O)O` [Peptide 1601.30], the IC50 against DRB3*0101 is greater than 20 µM.

As for ADKIYSISMKHPQEM [Peptide 68.0125], the IC50 against DRB1*1201 was 9.25 µM; on DRB5*0101 (Binding affinity DRB5 *0101), greater than 20 µM; at DRB3*0101, greater than 20 µM; on DR1 (DRB1*0101) it was greater than 20 µM.

Take EISFAGIVTKLPTAN [Peptide 89.0174]: the IC50 against DRB4*0101 is greater than 20 µM; against DRB1*1501, 8.14 µM; against DR7 (DRB1*0701), 7.8 µM; on DRB1*1101 (Binding affinity DRB1 *1101) it was greater than 20 µM; at DRB3*0101 it was 0.07 µM; against DRB1*0901, greater than 20 µM. Besides, the IC50 on DRB1*0802 is 11.3 µM; against DR1 (DRB1*0101), 18.7 µM; at DRB1*0405, greater than 20 µM.

For the molecule GIVEQTTTSITSLYQ [Peptide 9000.0054], the IC50 is 2.3 µM on DRB4*0101; 0.849 µM against DRB1*1501; greater than 37.6 µM against DRB5*0101 (DRB5*0101); greater than 10.5 µM against DRB1*1101 (DRB1*1101); 0.014 µM against DRB1*1302; greater than 95.2 µM against DRB3*0101.

As for HPLYNMSLLKHQSLR [Peptide 68.0008], the figures for the IC50 at DRB1*1201 and on DRB3*0101 were 0.095 µM and greater than 20 µM, respectively.

Consider LDHYENDSKDINSQI [Peptide 1601.29], for which the half-maximal inhibitory concentration (IC50) against DRB4*0101 was 0.554 µM; at DRB1*1501, greater than 20 µM; on DR7 (DRB1*0701), 19.9 µM; at DRB5*0101 (Binding affinity DRB5 *0101), greater than 20 µM; on DRB1*1101 (Binding affinity DRB1 *1101) it was greater than 20 µM; against DRB1*1302, greater than 20 µM. The IC50 is 2.05 µM on DRB3*0101; greater than 20 µM at DRB1*0901; greater than 20 µM against DRB1*0802; greater than 20 µM at DR1 (DRB1*0101); greater than 20 µM against DR4w4 (DRB1*0401); greater than 20 µM against DRB1*0405.

Regarding LETIYNSQYSNEKWT [Peptide 1601.03], the IC50 against DRB1*1501 was 0.563 µM; against DR7 (DRB1*0701) it was greater than 20 µM; at DRB5*0101 (Binding affinity DRB5 *0101), 0.208 µM; on DRB1*1101 (Binding affinity DRB1 *1101) it was greater than 20 µM; against DRB1*1302 it was 6.8 µM; on DRB3*0101, greater than 20 µM. Further, the IC50 was 6.1 µM against DRB1*0901; greater than 20 µM on DRB1*0802; 8.61 µM at DR1 (DRB1*0101); 0.099 µM on DR4w4 (DRB1*0401); 3 µM against DRB1*0405.

With NMSLLKHQSLRPDED [Peptide 68.0009], the IC50 at DRB1*1501, on DR7 (DRB1*0701), at DRB5*0101 (Binding affinity DRB5 *0101), on DRB1*1101 (Binding affinity DRB1 *1101), on DRB1*1302 and on DRB3*0101 was greater than 20 µM each time. Moreover, the IC50 against DRB1*0901, at DRB1*0802 and on DR4w4 (DRB1*0401) was greater than 20 µM each time.

In the case of RVPVSHSFPHPLYNM [Peptide 68.0006], the IC50 at DRB1*1101 (Binding affinity DRB1 *1101), at DRB3*0101, on DRB1*0802 and against DR4w4 (DRB1*0401) was greater than 20 µM throughout.

Regarding YIVMSDWTGGA [Peptide 510.33], the 50% inhibitory concentration (IC50) at DRB5*0101 (DRB5*0101) is greater than 10 µM; at DRB1*1101 (DRB1*1101), greater than 6.67 µM; against DRB3*0101 it was greater than 33.3 µM.

For orientation: IC50 means the concentration needed to halve the response being measured.
